Results taken from patent publication US20240368150A1 (Hoffmann-La Roche Inc., priority 2021, published 2024).
Where two headings read alike, the source gives them in different places.

Legend:
primary human T-cells [1] = experiment: Proliferation assay after 5 days (CellTiter-Glo, CD3 stimulation; PBS counter screen); format: cell-based; conditions: CD3 stimulation; for Emax proliferation (% activation) / Emax: 5 days, normalized to reference compound A1 as stimulator control = 100%, DMSO neutral control; for EC50: primary human T-cells, CellTiter-Glo after 5 days, EC50 of fitted sigmoidal curve, read-out: Tcell Proliferation CD3 EC50; for Emax: read-out: Emax proliferation (% activation)
Outline: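 Read-out: CellTiter-Glo 2.0 luminescence (ATP ∝ cell number) at day 5 after compound addition. Compounds activating unstimulated cells or reducing viability flagged.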

primary human T-cells [2] = test system: primary human T-cells
Protocol: As readouts for T-cell activation, IL2 secretion after 24 hours and proliferation after 5 days was measured. Increases in IL2 secretion and proliferation upon compound treatment were assessed as the % of the maximum of reference compound A1. […] As a counter screen and to make sure that no unwanted TCR-independent activation was triggered, PBS conditions were run for all compounds.
For coating of plates, PBS++ with PBS−− or PBS++ with CD3 antibody (concentration depending on donor and determined by CD3 titrations) was added 100 μl/well to Poly-D Lysine coated 96-well plates. Plates were sealed and incubated at room temperature for 3 hours on a table-top rocking platform. After incubation, plates were washed once with PBS−− and filled with 40 μl/well culture medium only. Compounds were then added (see next section) to medium only plates. After 3 hours of culturing the T-cells, cells were filtered through a cell strainer (Miltenyi Biotech, #130-041-407), counted again and concentration was adjusted to 1.25 Mio/ml.
Cells were then seeded 80 μl/well to the 40 μl/well including dispensed compounds according to plate layout. By adding cells, compounds were further diluted 1:3, and resulting in 100 k cells/120 μl/well. After 24 hours 40 μl of supernatant was collected carefully from the top while not disturbing the cells and transferred into a round bottom 96 well plate. Collected and frozen supernatant was used for detection of IL2 using the IL-2 Human ProQuantum Immunoassay Kit (Invitrogen) or using the Human IL-2 ELISA Kit (Thermo Fisher).
Compounds were added in a 5 or 6pt dose response with the Tecan D300e Digital Dispenser, all conditions 3 times more concentrated than the end-concentration, since cells are added afterwards (80 μl cells to 40 μl prepared medium with treatment). The DR was starting at 20 μM or 10 μM final top concentration and a dilution factor of 3.333. The positive control was the reference compound A1 that was added in a dose response as well, additionally to 3 wells of only 20 μM representing the positive stimulator control. All wells were normalized with DMSO to a final concentration of 0.6% (0.2% end-concentration).
The immunoassay is done following the manufacturer's manual (Invitrogen, #A35603). Additional information: For the immunoassay, MicroAmp™ EnduraPlate™ Optical 384-Well plates are used. Frozen supernatant is thawed and centrifuged for 5 minutes at 1000×g, both steps at 4° C. After centrifugation, required sample amount is taken from the top, and in a separate LightCycler V-bottom plate (working plate) diluted with assay dilution buffer, dilution factor depending on the PBS or CD3 condition but at least 1:3. IL-2 standard and blanks are prepared in the same V-bottom plate, standard with a range of 0.0128-5000 pg/ml (extended version). After preparation, 5 μl of sample dilutions or standard/blanks are transferred to the optical 384-well plate (assay plate) and the 10 μl reaction protocol is being followed. For measurement, the QuantStudio 12K Flex system is used.
ELISA is done following the manufacturer's manual (Thermo Fisher Scientific, #88-7025-88). Additional information: For the ELISA Nunc MaxiSorp 96 well plates are used. Frozen supernatant is thawed and centrifuged for 5 minutes at 1000×g, both steps at 4° C. After that, required sample amount is taken from the top, and in a separate V-bottom plate diluted with ELISA diluent, dilution factor depending on the PBS or CD3 condition. IL-2 standard and blanks are prepared in the same V-bottom plate. After preparation, 50 μl of sample dilutions and 100 μl of standard or blanks are transferred to the Nunc plates.
CD3 and PBS plates were analysed separately in Genedata Screener using Roche Normalization PCT_POS_CTRL with DMSO set as Neutral Control and 20 μM of the reference compound A1 set as Stimulator Control/100%.
For CD3 conditions EC50 and Emax of the fitted sigmoidal curve were reported.

hDGKzeta(1-928)-N-His = hDGKzeta(1-928)-N-His (Homo sapiens (Human), UniProt Q13574); experiment: DGKzeta ADP Glo assay (in vitro DGK inhibition); format: biochemical; conditions: DLG 125 uM, ATP 50 μM, DGK ζ 2 nM, 1 hour reaction
Protocol: (§1) DGK α and ζ kinase use ATP to phosphorylate the substrate 1,2-dilauroyl-sn-glycerol (DLG, incorporated in the liposomes). ATP is converted to ADP as a result of this enzymatic reaction. After the kinase reaction, an ATP-depletion reagent is added to terminate the kinase reaction and deplete any remaining ATP, leaving only ADP. Second, a detection reagent is added to simultaneously convert ADP to ATP and allow the newly synthesized ATP to be converted to light using a coupled luciferase/luciferin reaction.
(§2) Purification of both enzymes was performed as previously described by Takahashi et al., PeerJ, 2018 (Takahashi, D.; Sakane, F. Expression and purification of human diacylglycerol kinase alpha from baculovirus-infected insect cells for structural studies. PeerJ 2018, 6, No. e5449).
(§3) A concentrated liposome solution was prepared in assay buffer without DTT and BSA: 2 mM of DLG in 21 mM of total liposome (2 mM DLG/8 mM PS/11 mM PC). […] The reactions were started by addition of DGK α and ζ kinases at 4 nM and 2 nM final concentrations, respectively. After 1 hour reaction, the amount of ADP formed was detected with the ADP-Glo kinase assay (Promega) according to the manufacturer instructions. Compounds were added in 11-points dose response, starting at […], 1:3 dilutions, with a final DMSO concentration of 2%. The multidrop combi was used as a liquid handler and luminescence was read with 0.5 s by the envision reader (PE).

hDGKalpha(1-735)-N-His = hDGKalpha(1-735)-N-His (Homo sapiens (Human), UniProt P23743); experiment: DGKalpha ADP Glo assay (in vitro DGK inhibition); format: biochemical; conditions: DLG 125 uM, ATP 25 μM, DGK α 4 nM, 1 hour reaction
Protocol: as §1, §2, §3

MV-3 cells = experiment: T-cell - TCB - MV3 killing assay (MCSP-TCB, RFP object count by Incucyte); format: cell-based, human; conditions: 5 d; for Emax: normalized: MCSP-TCB only = neutral control, 20 μM reference compound A1 = 100%, read-out: MSCP TCB killing MV-3 cells 5 d Emax; for EC50: primary human T-cells + MCSP-TCB, MV-3 RFP cells, read-out: MSCP TCB killing MV-3 cells 5 d EC50

Chain of hDGKzeta(1-928)-N-His (Q13574 whole entry): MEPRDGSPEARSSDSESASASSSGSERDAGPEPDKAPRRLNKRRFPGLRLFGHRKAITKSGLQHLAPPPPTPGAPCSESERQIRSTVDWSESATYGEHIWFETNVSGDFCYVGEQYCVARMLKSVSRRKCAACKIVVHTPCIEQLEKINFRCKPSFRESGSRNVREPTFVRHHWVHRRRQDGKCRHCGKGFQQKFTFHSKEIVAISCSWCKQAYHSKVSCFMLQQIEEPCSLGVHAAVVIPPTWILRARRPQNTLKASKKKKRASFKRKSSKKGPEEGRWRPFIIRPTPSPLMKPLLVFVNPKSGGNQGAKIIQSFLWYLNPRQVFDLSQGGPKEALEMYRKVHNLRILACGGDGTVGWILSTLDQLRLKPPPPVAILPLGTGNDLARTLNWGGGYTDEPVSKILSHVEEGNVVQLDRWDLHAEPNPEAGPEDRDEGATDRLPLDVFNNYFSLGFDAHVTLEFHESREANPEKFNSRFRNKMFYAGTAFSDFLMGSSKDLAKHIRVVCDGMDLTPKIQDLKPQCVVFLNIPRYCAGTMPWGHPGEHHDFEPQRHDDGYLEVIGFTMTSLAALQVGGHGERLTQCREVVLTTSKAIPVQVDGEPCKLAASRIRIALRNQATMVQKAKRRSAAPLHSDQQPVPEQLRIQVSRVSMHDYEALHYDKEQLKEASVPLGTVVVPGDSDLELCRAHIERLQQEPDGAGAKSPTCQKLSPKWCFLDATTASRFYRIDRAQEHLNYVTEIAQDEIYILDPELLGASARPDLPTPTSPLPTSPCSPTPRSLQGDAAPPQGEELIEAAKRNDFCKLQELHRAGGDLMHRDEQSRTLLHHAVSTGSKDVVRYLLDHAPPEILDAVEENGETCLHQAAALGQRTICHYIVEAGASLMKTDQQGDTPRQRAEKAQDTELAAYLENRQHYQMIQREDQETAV
Chain of hDGKalpha(1-735)-N-His (P23743 whole entry): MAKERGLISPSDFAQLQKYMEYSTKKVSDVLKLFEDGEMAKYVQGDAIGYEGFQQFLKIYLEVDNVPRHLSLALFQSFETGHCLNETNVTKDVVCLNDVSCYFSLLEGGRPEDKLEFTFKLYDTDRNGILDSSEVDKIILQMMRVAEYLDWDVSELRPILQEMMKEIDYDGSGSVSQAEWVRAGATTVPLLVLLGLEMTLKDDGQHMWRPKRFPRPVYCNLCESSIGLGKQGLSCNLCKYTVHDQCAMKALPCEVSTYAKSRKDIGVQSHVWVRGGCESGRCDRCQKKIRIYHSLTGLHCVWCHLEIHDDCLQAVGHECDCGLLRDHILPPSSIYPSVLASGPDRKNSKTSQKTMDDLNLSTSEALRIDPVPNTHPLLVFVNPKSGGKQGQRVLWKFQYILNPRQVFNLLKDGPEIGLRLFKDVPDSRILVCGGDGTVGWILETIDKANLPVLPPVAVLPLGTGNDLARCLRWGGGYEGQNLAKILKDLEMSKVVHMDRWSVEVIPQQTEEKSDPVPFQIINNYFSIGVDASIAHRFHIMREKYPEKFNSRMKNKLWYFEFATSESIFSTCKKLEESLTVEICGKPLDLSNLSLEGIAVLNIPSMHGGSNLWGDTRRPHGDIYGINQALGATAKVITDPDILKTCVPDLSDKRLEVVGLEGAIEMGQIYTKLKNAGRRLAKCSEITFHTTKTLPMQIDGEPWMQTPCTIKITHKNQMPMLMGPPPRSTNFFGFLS

SMILES	Emax proliferation (% activation) (primary human T-cells [1])	EC50 (primary human T-cells [1])	EC50 (primary human T-cells [2])	IC50 (hDGKzeta(1-928)-N-His)	IC50 (hDGKalpha(1-735)-N-His)	Emax (primary human T-cells [1]; Homo sapiens, T-cell, 120 h)	EC50 (primary human T-cells [1]; Homo sapiens, T-cell, 120 h)	Emax (MV-3 cells; Homo sapiens, MV-3, 120 h)	EC50 (MV-3 cells; Homo sapiens, MV-3, 120 h)	EC50 (MV-3 cells)
N[C@H]1C[S+]([O-])c2cc(F)c(-c3noc(N4CCOC(C(F)(F)F)C4)n3)cc2N(Cc2ccc(Cl)cc2)C1=O (single isomer, unassigned; epimer a) [Example 213]	222 % activation	1390 nM	3270 nM	52 nM	2140 nM	–	–	–	–	–
N[C@H]1C[S+]([O-])c2cc(F)c(-c3noc(N4CCOC5CC54)n3)cc2N(Cc2ccc(Cl)cc2)C1=O (single isomer, unassigned; epimer b) [Example 208]	106 % activation	5310 nM	5250 nM	147 nM	2640 nM	–	–	–	–	–
N[C@H]1C[S+]([O-])c2cc(F)c(-c3noc(N4CCOC(C(F)(F)F)C4)n3)cc2N(Cc2ccc(Cl)cc2)C1=O (single isomer, unassigned; epimer b) [Example 212]	178 % activation	338 nM	2950 nM	46 nM	975 nM	–	–	–	–	–
CC(C)Oc1ccc(CN2C(=O)[C@@H](N)CS(=O)(=O)c3cc(F)c(-c4noc(C5CN(C)CC(F)(F)C5)n4)cc32)cc1 (stereo partly drawn) [Example 345, (3R)-3-amino-7-[5-(5,5-difluoro-1-methyl-3-piperidyl)-1,2,4-oxadiazol-3-yl]-8-fluoro-5-[(4-isopropoxyphenyl)methyl]-1,1-dioxo-2,3-dihydro-1λ^6,5-benzothiazepin-4-one]	–	–	–	207 nM	343 nM	152%	–	–	–	–
N[C@H]1CS(=O)(=O)c2ccc(-c3nnc(N4CCOC(C(F)F)C4)o3)cc2N(Cc2ccc(Cl)cc2)C1=O (stereo partly drawn) [Example 409, (3R)-3-amino-5-[(4-chlorophenyl)methyl]-7-[5-[2-(difluoromethyl)morpholin-4-yl]-1,3,4-oxadiazol-2-yl]-1,1-dioxo-2,3-dihydro-1λ^6,5-benzothiazepin-4-one]	–	–	–	795 nM	2870 nM	95%	3880 nM	–	–	–
CC(C)(C)c1nnc(-c2ccc3c(c2)N(Cc2ccc(C(C)(C)C#N)cc2)C(=O)[C@@H](N)CS3(=O)=O)o1 [Example 437, 2-[4-[[(3R)-3-amino-7-(5-tert-butyl-1,3,4-oxadiazol-2-yl)-1,1,4-trioxo-2,3-dihydro-1λ^6,5-benzothiazepin-5-yl]methyl]phenyl]-2-methyl-propanenitrile]	–	–	1400 nM	–	–	112%	698 nM	88%	340 nM	–
CN1CC(c2nnc(-c3cc4c(cc3F)S(=O)(=O)C[C@H](N)C(=O)N4Cc3ccc(Cl)cc3)o2)CC(F)(F)C1 (stereo partly drawn) [Example 451, (3R)-3-amino-5-[(4-chlorophenyl)methyl]-7-[5-(5,5-difluoro-1-methyl-3-piperidyl)-1,3,4-oxadiazol-2-yl]-8-fluoro-1,1-dioxo-2,3-dihydro-1λ^6,5-benzothiazepin-4-one]	200 % activation	82.1 nM	153 nM	–	–	–	–	88%	–	160 nM
N[C@H]1CS(=O)(=O)c2cc(F)c(-c3nnc(N4CCOCC4)o3)cc2N(Cc2ccc(Cl)cc2)C1=O [Example 454, (3R)-3-amino-5-[(4-chlorophenyl)methyl]-8-fluoro-7-(5-morpholino-1,3,4-oxadiazol-2-yl)-1,1-dioxo-2,3-dihydro-1λ^6,5-benzothiazepin-4-one]	–	–	97.7 nM	–	–	129%	309 nM	100%	–	70 nM
N[C@H]1CS(=O)(=O)c2cc(F)c(-c3nnc(NC4CCCC4)o3)cc2N(Cc2ccc(Cl)cc2)C1=O [Example 455, (3R)-3-amino-5-[(4-chlorophenyl)methyl]-7-[5-(cyclopentylamino)-1,3,4-oxadiazol-2-yl]-8-fluoro-1,1-dioxo-2,3-dihydro-1λ^6,5-benzothiazepin-4-one]	–	–	225 nM	–	–	115%	339 nM	91%	–	370 nM
N[C@H]1CS(=O)(=O)c2cc(F)c(-c3nnc(NC4CCC(F)(F)C4)o3)cc2N(Cc2ccc(Cl)cc2)C1=O (stereo partly drawn) [Example 456, (3R)-3-amino-5-[(4-chlorophenyl)methyl]-7-[5-[(3,3-difluorocyclopentyl)amino]-1,3,4-oxadiazol-2-yl]-8-fluoro-1,1-dioxo-2,3-dihydro-1λ^6,5-benzothiazepin-4-one]	–	–	607 nM	–	–	99%	1260 nM	94%	–	770 nM
N[C@H]1CS(=O)(=O)c2cc(F)c(-c3nnc(NC4CCC(F)(F)CC4)o3)cc2N(Cc2ccc(Cl)cc2)C1=O [Example 458, (3R)-3-amino-5-[(4-chlorophenyl)methyl]-7-[5-[(4,4-difluorocyclohexyl)amino]-1,3,4-oxadiazol-2-yl]-8-fluoro-1,1-dioxo-2,3-dihydro-1λ^6,5-benzothiazepin-4-one]	–	–	543 nM	–	–	116%	491 nM	95%	–	590 nM
CC1(Nc2nnc(-c3cc4c(cc3F)S(=O)(=O)C[C@H](N)C(=O)N4Cc3ccc(Cl)cc3)o2)CC(F)(F)C1 [Example 461, (3R)-3-amino-5-[(4-chlorophenyl)methyl]-7-[5-[(3,3-difluoro-1-methyl-cyclobutyl)amino]-1,3,4-oxadiazol-2-yl]-8-fluoro-1,1-dioxo-2,3-dihydro-1λ^6,5-benzothiazepin-4-one]	–	–	455 nM	–	–	106%	395 nM	91%	–	310 nM
N[C@H]1CS(=O)(=O)c2cc(F)c(-c3nnc(NC4CC(F)(F)C4)o3)cc2N(Cc2ccc(Cl)cc2)C1=O [Example 462, (3R)-3-amino-5-[(4-chlorophenyl)methyl]-7-[5-[(3,3-difluorocyclobutyl)amino]-1,3,4-oxadiazol-2-yl]-8-fluoro-1,1-dioxo-2,3-dihydro-1λ^6,5-benzothiazepin-4-one]	–	–	986 nM	–	–	121%	562 nM	100%	–	350 nM
N[C@H]1CS(=O)(=O)c2cc(F)c(-c3nnc(NC4CCCC(F)(F)C4)o3)cc2N(Cc2ccc(Cl)cc2)C1=O (stereo partly drawn) [Example 463, (3R)-3-amino-5-[(4-chlorophenyl)methyl]-7-[5-[(3,3-difluorocyclohexyl)amino]-1,3,4-oxadiazol-2-yl]-8-fluoro-1,1-dioxo-2,3-dihydro-λ^6,5-benzothiazepin-4-one]	–	–	577 nM	–	–	104%	519 nM	91%	–	540 nM
CC(C)Nc1nnc(-c2cc3c(cc2F)S(=O)(=O)C[C@H](N)C(=O)N3Cc2ccc(Cl)cc2)o1 [Example 464, (3R)-3-amino-5-[(4-chlorophenyl)methyl]-8-fluoro-7-[5-(isopropylamino)-1,3,4-oxadiazol-2-yl]-1,1-dioxo-2,3-dihydro-1λ^6,5-benzothiazepin-4-one]	–	–	1130 nM	–	–	111%	1040 nM	89%	–	460 nM
CC(C)(C)Nc1nnc(-c2cc3c(cc2F)S(=O)(=O)C[C@H](N)C(=O)N3Cc2ccc(Cl)cc2)o1 [Example 488, (3R)-3-amino-7-[5-(tert-butylamino)-1,3,4-oxadiazol-2-yl]-5-[(4-chlorophenyl)methyl]-8-fluoro-1,1-dioxo-2,3-dihydro-1λ^6,5-benzothiazepin-4-one]	–	–	254 nM	–	–	105%	351 nM	93%	–	300 nM
CCc1nnn(-c2cc3c(cc2F)S(=O)(=O)C[C@H](N)C(=O)N3Cc2ccc(Cl)cc2)n1 [Example 509, (3R)-3-amino-5-[(4-chlorophenyl)methyl]-7-(5-ethyltetrazol-2-yl)-8-fluoro-1,1-dioxo-2,3-dihydro-1λ^6,5-benzothiazepin-4-one]	–	–	290 nM	–	–	122%	158 nM	94%	–	190 nM
